According to patent US20160368919A1, “NOVEL PYRIDINE PYRAZINONES AS BET-FAMILY BROMODOMAIN INHIBITORS” (Pfizer Inc., priority 2015, published 2016):

Columns and labels:
BRD4 BD1 = biological target: T1, BRD4 BD1 (Homo sapiens, UniProt O60885); test: BRD4 BD1 Fluorescence Polarization (FP) competition binding assay; conditions: BRD4 BD1 40 nM, probe PFI-411FP 2 nM
T1 construct: His-tagged BRD4 BD1 (44-160); made in house
In short: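 BRD4 BD1 (40 nM) preincubated 15 min at 20° C. with compound (120 to 0.0012 μM) in HEPES pH 7.4 with 0.08% BSA, then 2 nM PFI-411FP tracer added for 60 min. Fluorescence polarization read (ex 620/em 688 nm); IC50 from four-parameter fit, converted to Ki via Nikolovska-Coleska equation.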

[1] = system: LPS-induced IL-6 production in human whole blood; test: IL-6 human whole blood (HWB) assay, LPS-stimulated, HTRF detection; format: cell-based; conditions: 1 ng/ml LPS, 4 hours
DU-145 cells, AR(−) = test: CRPC cell proliferation assay (CellTiter-Glo), DU-145; format: cell-based; conditions: CTG at 96h
Protocol: Castrate-Resistant Prostate Cancer (CRPC) Cell Proliferation Assay • Cells were seeded into 96-well plates at 2,000-10,000 cells/well in 100 uL medium. Four AR(+) cell lines (LnCaP, C4-2 (parental), C4-2AR-WT and C4-2AR—F876L) and one AR(−) cell line (DU-145) were studied. Compound treated cells were analyzed for cell density at 96h, using CellTiter-Glo® (CTG) reagent (Promega).

IC50 (BRD4 BD1): 62.2 nM
IC50 [1]: 530 nM
IC50 (DU-145 cells, AR(−); Homo sapiens): 1880 nM
Compound: CCC(=O)N(C)c1ccc2nc(NCCC(=O)O)c(=O)n([C@@H](CC)c3ccccc3)c2n1 [Example 10, N-{6-[methyl(propanoyl)amino]-3-oxo-4-[(1S)-1-phenylpropyl]-3,4-dihydropyrido[2,3-b]pyrazin-2-yl}-beta-alanine]
Max % Inh (DU-145 cells, AR(−)): 55%
